Reference: ChEMBL document CHEMBL1136785, “Design and structure-activity relationships of 2-alkyl-3-aminomethyl-6-(3-methoxyphenyl)-7-methyl-8-(2-fluorobenzyl)imidazolo[1,2-a]pyrimid-5-ones as potent GnRH receptor antagonists” (J Med Chem, 2003)

biological target: T1, Gonadotropin-releasing hormone receptor (Homo sapiens, UniProt P30968); assay: Binding affinity against human gonadotropin-releasing hormone receptor
T1 sequence (P30968 whole entry): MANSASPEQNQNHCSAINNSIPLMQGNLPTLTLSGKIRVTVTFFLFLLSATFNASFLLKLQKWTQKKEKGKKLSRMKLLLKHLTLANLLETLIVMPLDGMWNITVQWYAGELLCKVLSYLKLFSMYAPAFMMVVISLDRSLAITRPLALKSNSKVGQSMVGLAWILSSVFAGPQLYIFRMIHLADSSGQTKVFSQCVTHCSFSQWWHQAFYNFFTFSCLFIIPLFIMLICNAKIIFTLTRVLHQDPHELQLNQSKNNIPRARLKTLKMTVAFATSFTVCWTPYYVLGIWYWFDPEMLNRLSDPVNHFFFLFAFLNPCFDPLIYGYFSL

Row | Compound | Ki [nM]
1 | COc1cccc(-c2c(C)n(Cc3ccccc3F)c3nc(C(C)(C)C)c(CNCc4ccccc4)n3c2=O)c1 | 240
2 | COc1cccc(-c2c(C)n(Cc3ccccc3F)c3nc4c(n3c2=O)CN(CCc2ccccn2)CC4(C)C)c1 | 12000
3 | COCCN(C)Cc1c(C(C)(C)C)nc2n(Cc3ccccc3F)c(C)c(-c3cccc(OC)c3)c(=O)n12 | 430
4 | COc1cccc(-c2c(C)n(Cc3ccccc3F)c3nc(C(C)(C)C)c(CNCC4CCCCC4)n3c2=O)c1 | 430
5 | COc1cccc(-c2c(C)n(Cc3ccccc3F)c3nc(C(C)(C)C)c(CNCC4CCCC4)n3c2=O)c1 | 6400
6 | COC(=O)C(C)(C)c1nc2n(Cc3ccccc3F)c(C)c(-c3cccc(OC)c3)c(=O)n2c1CN1CCc2ccccc2C1 | 9200
7 | COc1cccc(-c2c(C)n(Cc3ccccc3F)c3nc(C(C)(C)C)c(CN(C)CCc4ccccc4)n3c2=O)c1 | 190
8 | COC(=O)C(C)(C)c1nc2n(Cc3ccccc3F)c(C)c(-c3cccc(OC)c3)c(=O)n2c1CN1CCC(c2ccccc2)CC1 | 5100
9 | COCCN(C)Cc1c(C(C)(C)C(=O)OC)nc2n(Cc3ccccc3F)c(C)c(-c3cccc(OC)c3)c(=O)n12 | 300
10 | COc1cccc(-c2c(C)n(Cc3ccccc3F)c3nc(C(C)(C)C)c(CNCCc4ccccn4)n3c2=O)c1 | 160
11 | COC(=O)C(C)(C)c1nc2n(Cc3ccccc3F)c(C)c(-c3cccc(OC)c3)c(=O)n2c1CN(C)CCc1ccccc1 | 130
12 | COc1cccc(-c2c(C)n(Cc3ccccc3F)c3nc(C(C)(C)CNCCc4ccccn4)cn3c2=O)c1 | 350
13 | COC(=O)C(C)(C)c1nc2n(Cc3ccccc3F)c(C)c(-c3cccc(OC)c3)c(=O)n2c1CN(C)Cc1cccnc1 | 400
14 | CCN(CC)CCN(C)Cc1c(C(C)(C)C)nc2n(Cc3ccccc3F)c(C)c(-c3cccc(OC)c3)c(=O)n12 | 260
15 | COc1cccc(-c2c(C)n(Cc3ccccc3F)c3nc(C(C)(C)C)c(CN(C)C)n3c2=O)c1 | 1700
16 | CCCCN(C)Cc1c(C(C)(C)C(=O)OC)nc2n(Cc3ccccc3F)c(C)c(-c3cccc(OC)c3)c(=O)n12 | 320
17 | COC(=O)C(C)(C)c1nc2n(Cc3ccccc3F)c(C)c(-c3cccc(OC)c3)c(=O)n2c1CN1CCN(C)CC1 | 7700
18 | COC(=O)C(C)(C)c1nc2n(Cc3ccccc3F)c(C)c(-c3cccc(OC)c3)c(=O)n2c1CN(C)Cc1ccccc1O | 490

The next compounds have a lower Ki than those just listed; values first:

Row | Ki [nM] | Compound
19 | 1.2 | COC(=O)C(C)(C)c1nc2n(Cc3ccccc3F)c(C)c(-c3cccc(OC)c3)c(=O)n2c1CN(C)CCc1ccccn1
20 | 4.2 | COC(=O)C(C)(C)c1nc2n(Cc3ccccc3F)c(C)c(-c3cccc(OC)c3)c(=O)n2c1CN(C)Cc1ccccn1
21 | 8 | COc1cccc(-c2c(C)n(Cc3ccccc3F)c3nc(C(C)(C)CO)c(CN(C)Cc4ccccn4)n3c2=O)c1
22 | 72 | COc1cccc(-c2c(C)n(Cc3ccccc3F)c3nc(C(C)(C)C)c(CN(C)Cc4ccccc4)n3c2=O)c1
23 | 11 | COc1cccc(-c2c(C)n(Cc3ccccc3F)c3nc(C(C)(C)C)c(CN(C)Cc4ccccn4)n3c2=O)c1
24 | 30 | COc1cccc(-c2c(C)n(Cc3ccccc3F)c3nc(C(C)(C)C)c(CNCc4ccccn4)n3c2=O)c1
25 | 5.2 | COc1cccc(-c2c(C)n(Cc3ccccc3F)c3nc(C(C)(C)C)c(CN(C)CCc4ccccn4)n3c2=O)c1
26 | 59 | COC(=O)C(C)(C)c1nc2n(Cc3ccccc3F)c(C)c(-c3cccc(OC)c3)c(=O)n2c1CN(C)Cc1ccccc1
27 | 7.9 | CCN(CCc1ccccn1)Cc1c(C(C)(C)C)nc2n(Cc3ccccc3F)c(C)c(-c3cccc(OC)c3)c(=O)n12
